Test results as given in the NIST ThermoML archive (doi:10.1016/j.fluid.2015.07.012).

Experiment: xn = mol fraction of the nth substance listed
Details: 350.7 K, Liquid; for viscosity: Capillary tube (Ostwald / Ubbelohde) method; for mass density: Vibrating tube method

CCCO [propan-1-ol] + O
Details | mass density, 10000 kPa [kg/m3] | mass density, 20000 kPa [kg/m3] | mass density, 30000 kPa [kg/m3] | viscosity, 10000 kPa [mPa·s] | viscosity, 20000 kPa [mPa·s] | viscosity, 30000 kPa [mPa·s]
x1 = 0.1 | 919.5 | 924.38 | 929.09 | 0.591 | 0.611 | 0.63
x1 = 0.2 | 878.37 | 883.66 | 889.66 | 0.723 | 0.763 | 0.81
x1 = 0.3 | 847.8 | 854.62 | 861.08 | 0.77 | 0.814 | 0.85
x1 = 0.4 | 826 | 833.03 | 840.74 | 0.758 | 0.81 | 0.86
x1 = 0.6 | 796.1 | 804.64 | 812.37 | 0.737 | 0.774 | 0.848
x1 = 0.8 | 776.11 | 786.05 | 794.61 | 0.689 | 0.736 | 0.827
x1 = 1 | 763.09 | 772.75 | 781.33 | 0.694 | 0.753 | 0.823
